Reference: patent EP1090646A2, “Labelled d-mannoheptulose derivatives and their use for imaging of the endocrine pancreas” (UNIVERSITE LIBRE DE BRUXELLES, priority 1999, dated 2001)
Like-named read-outs stand apart in the source and are kept apart here.

Experiments:
[1] = test system: isolated pancreatic islets
Description: (§1) Unless otherwise mentioned, the pancreatic pieces or isolated islets were submitted after incubation, to four successive washes conducted at 4°C with a medium containing 20.0 µM cytochalasin B (Sigma, St. Louis, MO, USA).
In a further series of experiments, groups of 20 islets each were submitted, after incubation, to 6 successive washes at 4°C in the presence of cytochalasin B (20.0 µM).
In the last set of experiments in this series, groups of 20 islets each were incubated for 60 min at 37°C in the presence of D-[^3H]mannoheptulose (0.1 mM), washed thrice at 4°C, further incubated for 60 min at 37°C in the absence of the heptose but presence of cytochalasin B (20.0 µM), again submitted to 4 successive washes, and eventually examined for their radioactive content.

[2] = test system: tumoral islet cells of the RINm5F line
[3] = test system: rat pancreatic islets or dispersed islet cells; details: 60 min incubation at 37°C
pieces of pancreas = assay: Apparent distribution space in pieces of pancreas from control and STZ rats; details: for apparent distribution space in the presence of D-glucose relative to its absence: D-glucose 8.3 mM; for final distribution space relative to the initial incubation medium radioactive content: after the two successive incubations
Description: as §1
In the next series of experiments, the possible uptake of D-[^3H]mannoheptulose was compared to that of its hexaacetate ester in pieces of pancreas from normal rats (Figure 2).
In the last set of experiments in this series, pieces of pancreas from either normal or STZ rats were first incubated for 60 min at 37°C in the presence of 8.3 mM D-glucose, then submitted to 3 washes at 4°C in the presence of the hexose (8.3 mM) and cytochalasin B (20.0 µM), further incubated for 60 min at 37°C, still in the presence of D-glucose and the mould metabolite, and eventually submitted to 4 washes at 4°C prior to measurement of their radioactive content.

[4] = test system: tumoral islet cells of the INS-1 line
[5] = Description: Two preparations of D-[^3H]mannoheptulose were used. The first preparation, used in a few in vitro experiments and in one set of in vivo experiments (animals injected 30 to 60 min before sacrifice), was a product from Nycomed Amersham (Little Chalfont, Buckinghamshire, UK). […] The second preparation used in all other experiments was a product from NEN Life Science Products (Zaventem, Belgium). […] In all experiments conducted in vivo, the animals were injected intravenously with D-[^3H]mannoheptulose (10-40 µCi, and 200 µCi in the case of the rats killed 48 hours after this injection) placed in 300 µl of saline. Except in the animals killed 30-60 min after D-[^3H]mannoheptulose injection, the inoculate also contained 0.1 mM unlabelled D-mannoheptulose.
In the in vivo experiments, the STZ rats were either not treated with insulin (animals killed 30-60 min after D-[^3H]mannoheptulose injection) or received twice daily 6 U of insulin (Insulatard, Novo Nordisk, Bagsvaerd, Denmark) subcutaneously, the last of these injections being given at about 5 p.m. on the day before either the injection of D-[^3H]mannoheptulose (animals killed 15 min after D-[^3H]mannoheptulose administration) or the sacrifice of the rats (rats examined 48 hours after D-[^3H]mannoheptulose injection). The animals killed 15 min after the injection of D-[^3H]mannoheptulose received a total of either 5 insulin injections, the first being made at about 5 p.m. on the day after streptozotocin administration, or 6 insulin injections given between the third and fifth day after streptozotocin administration. In the rats killed 48 hours after the injection of D-[^3H]mannoheptulose, the insulin treatment was initiated at 9 a.m. 3 days after streptozotocin administration and continued for a total of 5 days.
At stated times after D-[^3H]mannoheptulose intravenous injection, the rats were killed by decapitation, blood was collected in heparinized vials and the plasma separated for measurement of its radioactive content, as well as D-glucose^13 and insulin^14 concentrations. Samples of gastrocnemius muscle, liver, kidney and pancreas were weighed, homogenised in 1.5-3.0 ml of water, and aliquot parts of these homogenates examined for their radioactive content by liquid scintillation.
All radioactive data were calculated as dpm/µl of plasma or dpm/mg wet wt. (muscle, liver, kidney, pancreas). In these four tissues, the results were eventually expressed as µl/mg wet wt., by dividing the radioactive content (dpm/mg) by the paired plasma value (dpm/µl).

[6] = one day after intraperitoneal injection
Description: Female Wistar rats (220-230 g body wt.) were injected intravenously with streptozotocin (0.25 µmol/g body wt.) on day zero. Eight to nine days later, they were transplanted with 1,500-6,000 islets prepared by the collagenase procedure (2) from rats of the same sex and strain (Iffa Credo, L'Arbresle, France). The islets were placed (1,500 islets per module) in 1-4 implantation modules (Statice Santé, Besançon, France), which were inserted, under pentobarbital anaesthesia (0.5-0.6 µmol/g body wt.; Nembutal, Sanofi, Brussels, Belgium), into the peritoneal cavity. The modules were equipped with a 20 µm thick polycarbonate membrane (Whatman, Maidstone, Kent, UK) with 6 x 10^8 pores (diameter : 50 nm) per cm^2. The glycemia of the rats was monitored in blood samples collected from the severed end of the tail.
D-[^3H]mannoheptulose (100 µCi in 0.3 ml saline containing 0.1 mM unlabelled D-mannoheptulose) was injected intraperitoneally and the animals killed by decapitation 24 hours later after a last blood sampling from the severed end of the tail had been obtained for measurement of glycemia. The blood collected after decapitation in heparinized vials was used for measurements of radioactivity in aliquots of blood, plasma and erythrocytes, as well as for determination of plasma D-glucose and insulin concentration. Samples of the liver, gastrocnemius muscle and kidney, as well as the whole pancreas, were homogenised in 1.5 ml H2O, aliquot parts of the homogenates being used for DNA and radioactive measurements. The fluid present in the implantation device was aspirated and also examined for its radioactive content. Thereafter, the implantation device was repeatedly frozen and thawn in 0.4 ml H2O, aliquot parts of this extract being then again used for both DNA and radioactive determinations.
The methods used to measure DNA content (3), glycemia (Glycotronic C; Macherey-Nagel, Düren, Germany), plasma D-glucose (4) and insulin (5) concentrations were previously described in the cited references.

Remark: listed apart in the source
[7] = up to the 60th min after injection

[3H][C@@](O)(CO)[C@@H](O)[C@H](O)[C@@H](O)C=O [D-[5-^3H]glucose, reference compound]
apparent distribution space after incubation at 4°C relative to 37°C ([1]; 8.3 mM, 30 min, 6 washes): 55.5 ± 8.3%

[3H][C@@](O)([C@H](O)CO)[C@H](O)[C@H](O)C(=O)CO [D-[^3H]mannoheptulose]
apparent distribution space relative to the intracellular 3HOH space [2]: about 3% | apparent intracellular distribution space relative to the intracellular 3HOH space [3]: ~50% | apparent distribution space in STZ rats relative to control value (pieces of pancreas; 0.1 mM, 10 to 60 min at 37°C, 8.3 mM D-glucose, overall mean): 89.2 ± 3.6% | apparent distribution space in the presence of cytochalasin B relative to reference value (no cytochalasin B) (pieces of pancreas; 0.1 mM, 60 min, 8.3 mM D-glucose, cytochalasin B 20.0 µM, pooled control and STZ rats): 101.1 ± 4.1% | apparent distribution space after two successive incubations relative to that after first incubation and immediate washes (pieces of pancreas; 0.1 mM, STZ rats): 9.4 ± 0.4% | apparent distribution space after two successive incubations relative to that after first incubation and immediate washes (pieces of pancreas; 0.1 mM, control rats): 14.4 ± 0.4% | ratio between the mean values of apparent distribution space after 60/10 min incubation (pieces of pancreas; 0.1 mM, normal rats, 37°C, 8.3 mM D-glucose): 1.36 ± 0.16 | final distribution space when the first incubation was conducted at 4°C relative to 37°C (pieces of pancreas; STZ rats): 38.0 ± 3.9% | apparent distribution space in the presence of D-glucose relative to its absence (pieces of pancreas; STZ rats, 0.1 mM, 60 min): 83.7 ± 4.5% | final distribution space relative to the initial incubation medium radioactive content (pieces of pancreas; STZ rats): 1.34 ± 0.11% | final distribution space relative to the initial incubation medium radioactive content (pieces of pancreas; control animals): 1.78 ± 0.10% | final distribution space when the first incubation was conducted at 4°C relative to 37°C (pieces of pancreas; control rats): 36.9 ± 4.2% | apparent distribution space in the presence of D-glucose relative to its absence (pieces of pancreas; control rats, 0.1 mM, 60 min): 106.7 ± 6.5% | apparent distribution space ([1]; 0.1 mM, 10-120 min incubation at 37°C, only 3 washes at 4°C with cytochalasin B 20.0 µM): ≥ 5.5 nl/islet | apparent distribution space in the presence of D-glucose relative to reference value (no D-glucose) ([1]; 0.1 mM, 30 or 120 min at 37°C, D-glucose 8.3 mM, 3 washes): 161.4 ± 23.7% | increase of apparent distribution space between the 15th and 120th min of incubation ([1]; 0.1 mM, 37°C, 8.3 mM D-glucose, 6 washes): 73.5 ± 30.3% | apparent distribution space relative to that of D-[5-3H]glucose (8.3 mM) ([1]; 0.1 mM, 30 min at 37°C, absence of D-glucose, 6 washes): 77.3 ± 9.4% | final radioactive content of islets first incubated with 8.3 mM D-glucose relative to absence of the hexose ([1]; 0.1 mM, 60 min 37°C, washes, further 60 min with cytochalasin B 20.0 µM): 168.5 ± 19.1% | final radioactive content with cytochalasin B in the first incubation medium containing 8.3 mM D-glucose, relative to reference value ([1]; 0.1 mM, cytochalasin B 20.0 µM, 60 min 37°C then second 60 min incubation): 103.7 ± 14.7% | apparent distribution space relative to the intracellular 3HOH space [4]: ~9% | radioactive content of the pancreatic gland relative to paired plasma value, STZ rats as % of mean control value ([5]; 15-2880 min after intravenous injection, all available data pooled): 81.6 ± 4.2% | liver/plasma radioactive ratio, STZ rats as % of normal rats ([5]; STZ animals not treated with insulin, tracer amount only, no unlabelled heptose): 56.1 ± 3.3% | paired ratio liver/plasma radioactivity, STZ rats as % of control rats ([5]; insulin-treated STZ rats (n = 11)): 109.5 ± 8.3% | kidney radioactive content relative to paired plasma value, STZ rats as % of normal rats ([5]; rat, in vivo): 68.1 ± 6.5% | paired ratio muscle/plasma radioactivity, STZ rats as % of control rats ([5]; rat, in vivo): 87.7 ± 6.2% | radioactive content of the pancreatic gland relative to paired plasma value, STZ rats as % of mean control value ([5]; results at 15 min not taken into account): 77.9 ± 5.6% | muscle/liver ratio [5, 7]: ≤ 17.00 ± 1.17% | paired pancreas/muscle ratio [5, 7]: 125.71 ± 7.83% | pancreas/liver ratio [5, 7]: 21.26 ± 1.07% | calculated radioactive content of the transplanted islets (dpm/mg wet wt.) relative to paired plasma radioactive content (dpm/µl) [6]: 6.49 ± 1.27 | paired islet/pancreas ratio [6]: 11.59 ± 0.03 | radioactive content calculated for the transplanted islets [6]: 332.7 ± 30.7 dpm/mg wet weight | radioactive content of the kidney [6]: 51.0 ± 0.9 dpm/mg wet weight | radioactive content of the liver [6]: 64.5 ± 6.4 dpm/mg wet weight | radioactive content of the muscle [6]: 28.9 ± 7.8 dpm/mg wet weight | radioactive content of the pancreas [6]: 28.7 ± 2.6 dpm/mg wet weight | volume of distribution, as judged from the plasma radioactive content ([6]; STZ diabetic rats with transplanted islets): 10.0 ± 2.2 ml/g body weight | radioactive content of the transplanted islets relative to that found in the pancreas (60 min after the intravenous injection): about 10 times | radioactive content in the liver and transplanted islets relative to the pancreatic gland (one hour after intravenous injection): 5-8 times

[3H]O[3H] [^3HOH, reference compound]
apparent distribution space after two successive incubations relative to that after first incubation and immediate washes (pieces of pancreas; normal or STZ rats pooled (n = 16), second 60 min incubation with D-glucose and cytochalasin B): no more than 1.8 ± 0.4%
